PMC4322365, “A Ligand-observed Mass Spectrometry Approach Integrated into the Fragment Based Lead Discovery Pipeline” (Scientific Reports, 2015)

Columns and labels:
NS5B = molecular target: T1, NS5B (Hepatitis C virus genotype 1b, UniProt P26663); assay: X-ray crystallography of fragments soaked into NS5B crystals; type: binding; settings: fragments soaked at 5 mM
T1 construct: NS5B with a C-terminal 10-His tag was expressed in E. coli; 10-His (C); made in house; host or cells: E. coli
From the text: Similar to other nucleotide polymerases, the domain distribution of apo HCV NS5B polymerase bears an anatomical resemblance to a right hand with subdomains representing the fingers, thumb and palm[50][51]. Structural and mechanistic studies of NS5B have indicated the existence of multiple allosteric binding domains including palm I, II and III pockets and thumb I and II sites targeted by reported inhibitors. To characterize the binding modes of the fragments studied, they were soaked in NS5B crystals to obtain the protein complex X-ray structures. We were able to resolve electron density corresponding to the soaked compound for five out of ten fragments (crystallographic data summary in Table S4).
Moreover, the interaction could be enhanced by a π-π conjugate between its benzene ring and Tyr448 (Figure 3A). Fragment 204 engages deep in the palm I pocket through its trifluoromethyl moiety forming a hydrogen bond with Ser368 and van der Waals interaction with Cys366. Additionally, the hydrophobic interaction with Met414 as well as the π-π conjugate to Tyr448 may also contribute to the relatively high binding affinity of this fragment (Figure 3B). Fragment 117 binds at the pocket mainly through van der Waals interactions with Met414, Cys366 and Ser368 (Figure 3C), whereas fragment 328 forms van der Waals interactions with Tyr415 and Cys366 (Figure 3D). We assume these weak interactions may result in the lower binding strengths observed for the two fragments. Fragment 162 binds NS5B in a small cavity of the thumb pocket, with its trifluoromethyl moiety extending a key hydrogen bond with Asn369 as well as making hydrophobic interactions with Ser371 and Glu481. To our knowledge, the three residues constitute a new active domain in the thumb region never disclosed before.
The final optimized NS5B crystals were grown by the hanging drop method using a well solution of 30 mg/mL protein, 20% (w/v) PEG-4000, 10% (v/v) glycerol, 5 mM DTT and 50 mM MES (pH 5.5) and diffracted to 2 Å. Fragments were soaked onto the NS5B crystals at a final concentration of 5 mM (2.38% DMSO) for 2–3 days. Diffraction data were collected at Rigaku MicorMax 007HF X-ray diffraction instrument with an R-AXIS HTC detector (Rigaku), and processed using CCP4[60]. The NS5B structure was solved by molecular replacement using NS5B (1QUV) as the search model. The fragment-bound NS5B complex structures were determined by rigid-body refinement using the apo NS5B structure as a starting model. Structure improvement proceeded with multiple rounds of manual model building in Coot, followed by refinement using CCP4. Fragment ligands were fitted into clear Fo-Fc electron density at the late stage of refinement. Images were rendered from PyMOL.

NS5B wild-type = molecular target: T2, NS5B wild-type (Hepatitis C virus genotype 1b, UniProt P26663); assay: In-solution binding specificity, ligand-observed MS, wild-type NS5B; settings: WT + 204; defined as 100%
T2 construct: NS5B with a C-terminal 10-His tag was expressed in E. coli; 10-His (C); made in house; host or cells: E. coli
From the text: To evaluate the binding specificity of fragment 204 to the palm domain of NS5B through interacting with certain residues indicated in the crystallographic data, we prepared two presumable binding-site mutants in the palm domain (C366A and M414T), and a control mutant in the thumb domain (M423T). […] Therefore, this experiment strongly implicated the finding by X-ray crystallography that fragment 204 binds to the palm domain of NS5B through interaction with Cys366 and Met414 was also valid in solution.
NS5B with a C-terminal 10-His tag was expressed in E. coli. Site-directed mutagenesis was performed using the Quick Site-directed mutagenesis kit according to the manufacturer's instructions (Stratagene, China). All constructs were verified by DNA sequencing. […]
In the primary screening, a mixture of 384 fragments (each at a final concentration of 25 μM) and NS5B at 50 μM was prepared in the binding buffer of 20 mM MES (pH 6.5), 300 mM NaCl and 10% glycerol, and incubated for 40 min at 25°C. […] The supernatant containing the ligands was evaporated by a speed vacuum, reconstituted in 80% methanol, and analyzed by LC/MS. […] Samples were all prepared in duplicate and analyzed separately.

| SMILES | Binding site in crystal structure (NS5B) | MS int. (%) (NS5B wild-type) |
| --- | --- | --- |
| N#CCc1ccc(O)cc1 [Fragment 114] | palm I allosteric domain |  |
| Cc1ccc2oc(=O)ccc2c1 [Fragment 117] | palm I allosteric domain |  |
| Nc1ccc(C(F)(F)F)cn1 [Fragment 162] | thumb region |  |
| O=C(O)c1ccc(C(F)(F)F)cc1 [Fragment 204] | palm I allosteric domain | 100.0% |
| N#CC(c1ccccc1)N1CCOCC1 (stereo not drawn) [Fragment 328] | palm I allosteric domain |  |
